Measured values: patent US20250114313A1, “OLIGO-BENZAMIDE ANALOGS AND THEIR USE IN CANCER TREATMENT” (BOARD OF REGENTS, THE UNIVERSITY OF TEXAS SYSTEM, priority 2022, published 2025)

How the values were obtained:
LAL lipase activity = molecular target: T1, LAL lipase activity (Homo sapiens, UniProt P38571); test: Lipase activity assay (4-MUP), SUM-159 cell lysate; format: biochemical; conditions: SUM-159 cells; 30 μM
T1 construct: heat stability of LAL or vinculin protein in SUM-159 cells; endogenous in cells; host or cells: SUM-159
T1 sequence (P38571 77-399): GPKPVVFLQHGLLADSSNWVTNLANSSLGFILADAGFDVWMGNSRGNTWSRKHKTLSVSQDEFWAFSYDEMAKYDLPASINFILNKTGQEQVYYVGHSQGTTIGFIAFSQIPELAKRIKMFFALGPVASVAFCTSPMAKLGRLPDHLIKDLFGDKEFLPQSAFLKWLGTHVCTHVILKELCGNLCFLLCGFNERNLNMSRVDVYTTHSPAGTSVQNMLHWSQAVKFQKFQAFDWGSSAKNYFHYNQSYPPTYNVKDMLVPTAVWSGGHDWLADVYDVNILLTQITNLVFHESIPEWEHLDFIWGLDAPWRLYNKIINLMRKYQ
Method: Lipase activity assay: Lipase activity assays were performed as described previously (Dairaku, et al)^37. Briefly, a 0.345 mM substrate solution was prepared from 1.2 mL of 13.3 mM 4-MUP and 42 mL of 100 mM sodium acetate buffer pH 4.0, 1.0% (v/v) Triton X-100 and 3.0 mL of 0.5% (w/v) cardiolipin. For the enzyme reaction, 50 μL of the substrate in buffer solution, 40 μL of diluted cell lysate and 10 μL of DMSO or 30 μM Lalistat2 or 30 μM ERX-41 were combined in a black 96-well plate. The plates were sealed with an adhesive aluminum film and incubated in a 37° C. incubator for 1 h. The reactions were terminated using 200 μL of 150 mM EDTA at pH 11.5. The fluorescence of the plates were read immediately with synergy H1 fluorescence microplate reader (BioTek) using a 365-nm excitation filter and a 450-nm emission filter. The LIPA lipase activity was calculated by subtracting the enzymatic activity of the inhibited (with Lalistat2) reaction from that of the uninhibited (without Lalistat2) reaction.

[1] = test system: SUM-159 clones with LIPA KO; test: Live cell imaging with SYTOX Green, SUM-159 LIPA KO; format: cell-based, Human; conditions: 1 μM
Method: Live cell imaging: Live cell images were acquired by Lionheart FX automated microscope (BioTek). Cells were plated one day before the experiment. For cell death assay, 0.2 μM SYTOX Green was added into the plate 15 min before the experiment.

[2] = test system: HSPA5, DDIT3, sXBP1 mRNA in HMEC cells; test: RT-qPCR of ER stress / UPR genes, HMEC; format: cell-based, human; conditions: 1 μM
[3] = test system: SUM-159 cells with LIPA KO; test: UPR induction and protein synthesis in SUM-159 cells with LIPA KO (RNA-seq, RT-qPCR, western); format: cell-based, Human; conditions: 1 μM, 4 h
Method: Western blotting: Whole cell lysates from breast cancer cells were prepared with 2× sample buffer (60 mM Tris-HCl, pH 6.8, 2% sodium dodecyl sulfate, 10% glycerol), and before loading mixed with loading buffer (5% 2-mercaptoethanol, 0.1% bromophenol blue) and boiled for denaturation, as previously described.^33 Proteins were separated by SDS-PAGE and subjected to Western analysis using antibodies. To detect nascent translated proteins, puromycin (final concentration 10 μg/mL) was added into cell plates 30 minutes before harvesting cells. Then samples were subjected to the Western blotting. Nascent proteins were detected by anti-puromycin antibody.
Real-time quantitative PCR (RT-qPCR): Total RNA was prepared from breast cancer cells using the RNeasy Mini Kit (Qiagen) according to the manufacturer protocols. Subsequently, total RNAs were reverse transcribed into cDNA using iScript Reverse Transcription Supermix (Bio-rad) and by using SYBR Green on an Illumina Real-Time PCR system.
RNA-sequencing: mRNA-seq sequencing library construction was performed using TruSeq RNA Library Preparation Kit (Illumina) according to the manufacturer's instructions. FASTQ reads from Genomics Core at UTSW were mapped to Human GRCh38 genome using HiSAT2 (RRID:SCR_015530). Differential expression analysis is performed using DEseq2 (RRID:SCR_015687). Abundances of transcripts are calculated using ballgown (Frazee et al. 2014). The values of Fragments Per Kilobase of transcript per Million mapped reads (FPKM) were used for Gene Set Enrichment Analysis (GSEA). GSEA was performed by using the GSEA software (RRID:SCR_005724) and C5 ontology gene sets (14765 gene sets in total). mRNA-seq data from this study are available from NCBI GEO under accession #GSE168800.

primary TNBC PDEs = test: TNBC patient-derived explant (PDE) cultures ex vivo; format: cell-based, human
Text: TNBC patient-derived explant (PDE) studies: For PDE studies excised tissue samples were processed and cultured ex vivo as previously described. De-identified patient tumors were obtained from the UTSW Tissue Repository after institutional review board approval (STU-032011-187). Inclusion criteria included women with prior histologic confirmation of TNBC who were undergoing surgical extirpation or biopsy of their primary tumor. Prior treatment with chemotherapy and/or radiation was allowed. Exclusion criteria included concurrent or prior diagnosis of other malignancies or prior evidence of ERα+ or HER2+ breast cancer. All cases were reviewed by the UTSW Tissue Repository in advance and patients were consented for their tissue to be used for laboratory research. Only de-identified information was shared with the laboratory. None of the laboratory personnel had access to additional patient information. No attrition was noted. Briefly, fresh tumor samples were incubated on gelatin sponges in culture medium containing 10% FBS, followed by treatment with either vehicle or presence of 2.5 μM ERX-41 for 72 h. Representative tissues were fixed in 10% formalin at 4° C. overnight and subsequently processed into paraffin blocks. Sections were then processed for immunohistochemical analysis.
Immunohistochemistry: Immunohistochemical studies were performed as described previously.^7 For the immunohistochemical studies, tissue sections were blocked in background sniper (Biocare Medical, RS966L) followed by overnight incubation with primary antibodies anti-Ki-67 antibody (1:1000, GeneTex cat #GTX16667 RRID:AB_422351) (link), anti-CHOP antibody (1:2000, Sigma, Cat #HPA068416), anti-PERK (phospho T982) antibody (1:150, Abcam Cat #ab192591, RRID:AB_2728666) link)), anti-phospho-eIF2α (Ser51) (1:50, Cell signaling, cs3398) and subsequent secondary antibody incubation for 60 min at room temperature. Immunoreactivity was visualized by using the DAB substrate and counterstained with hematoxylin (Vector Lab, Inc.). […]

With `CC(C)COc1cc(C(=O)Nc2ccc(C(=O)N[C@H]3CC[C@H](C)CC3)cc2OCC(C)C)ccc1NC(=O)c1ccc([N+](=O)[O-])c(OCCO)c1` [ERX-41] the “lipase activity of LIPA” value (LAL lipase activity) was “no inhibition of lipase activity”, the “cell death in SUM-159 with LIPA KO” value [1] was “dramatic decrease in cell death” and the “upregulation of HSPA5, DDIT3, sXBP1 mRNA in HMEC” value [2] was “not in HMEC cells”. For the same molecule, the “genes altered by RNA sequencing in LIPA KO cells” value [3] was “no genes significantly altered”, the “UPR pathway markers in explants” value (primary TNBC PDEs; IHC, within 24 h after treatment) was “enhanced pPERK, CHOP (protein product of DDIT3 gene) and peIF2a staining” and the “apoptosis (cleaved caspase 3 staining) of explants” value (primary TNBC PDEs; ex vivo) was “increased apoptosis”. For the same molecule, the “proliferation (Ki67 staining) of explants” value (primary TNBC PDEs; ex vivo) was “decreased proliferation”.
